Laboratory results reported in PubChem BioAssay (NCI).
Where “and” joins values, the source holds several entries; their conditions need not be identical. Equal values may be shown once.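 Grown in 96-well plates, cells were treated for 48 hours with each compound at five concentrations. Insufficient inhibition: endpoint recorded as highest concentration tested. The concentration for 50% growth inhibition is given as GI50. TGI: total growth inhibition.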

Key:
Assay in all cases: inhibition of tumour cell growth, NCI panel, 48 h
SF-539 CNS = tested on: SF-539 CNS
NCI-H23 lung = tested on: NCI-H23 lung
IGROV1 ovarian = tested on: IGROV1 ovarian
HOP-62 NSCLC = tested on: HOP-62 NSCLC
HT29 colon = tested on: HT29 colon
NCI-H522 lung = tested on: NCI-H522 lung
A549 NSCLC = tested on: A549 NSCLC
SR leukemia = tested on: SR leukemia
DU-145 prostate = tested on: DU-145 prostate
HS 578T breast = tested on: HS 578T breast

| SMILES | TGI (SF-539 CNS) [µM] | TGI (NCI-H23 lung) [µM] | TGI (IGROV1 ovarian) [µM] | TGI (HOP-62 NSCLC) [µM] | TGI (HT29 colon) [µM] | TGI (NCI-H522 lung) | TGI (A549 NSCLC) [µM] | TGI (SR leukemia) [µM] | GI50 (DU-145 prostate) [µM] | TGI (DU-145 prostate) [µM] | GI50 (SF-539 CNS) [µM] | GI50 (NCI-H23 lung) [µM] | GI50 (IGROV1 ovarian) [µM] | GI50 (HOP-62 NSCLC) [µM] | GI50 (HT29 colon) [µM] | GI50 (NCI-H522 lung) [µM] | GI50 (A549 NSCLC) [µM] | GI50 (HS 578T breast) [µM] | TGI (HS 578T breast) [µM] | GI50 (SR leukemia) [µM] |
| --- | --- | --- | --- | --- | --- | --- | --- | --- | --- | --- | --- | --- | --- | --- | --- | --- | --- | --- | --- | --- |
| COc1c2nc(CCl)[nH]c(=O)c2c(OC)c2nc(CCl)[nH]c(=O)c12 | > 100 | > 100 | > 100 | > 100 | > 100 | > 100 µM | > 100 | – | – | – | – | – | – | – | – | – | – | – | – | – |
| COc1ccc([N+]2=NC(c3ccc([N+](=O)[O-])cc3)=NN(c3ccccc3)C2)cc1 | – | > 100 | > 100 | > 100 | > 100 | 5.87 µM and 10.5 µM | > 100 | > 100 | – | – | – | – | – | – | – | – | – | – | – | – |
| COc1ccc(NC(=O)C(=O)C(C(=O)c2ccccc2)C2OC(=O)c3ccccc32)c([N+](=O)[O-])c1 (configuration not stated) | > 100 | > 100 | > 100 | > 100 | > 100 | > 100 µM | > 100 | > 100 | – | – | – | – | – | – | – | – | – | – | – | – |
| O=C1c2ccccc2-c2c1c1ccccc1c(=O)n2CCCNCCCn1ccnc1 | 2.48 | 1.53 | – | 1.13 | > 33.4 | 9.29 µM | 20.1 | – | 0.318 | 2.07 | 0.908 | 0.411 | 0.442 | 0.29 | 1.21 | 1.66 | 1.02 | 0.545 | 5 | – |
| O=[N+]([O-])c1cc(Cl)c(Cl)c([N+](=O)[O-])c1Cl | 6.94 | – | 3.02 | 3.25 | 4 | – | 3.65 | 4.93 | 1.63 | 2.99 | 2.53 | – | 1.42 | 1.82 | 1.18 | – | 1.78 | 2.35 | 7.47 | 0.538 |
| O=C(Nc1cc(Cl)c(Cl)cc1Cl)C(=O)C1C=CCS1(=O)=O (configuration not stated) | > 100 | > 100 | > 100 | > 100 | > 100 | > 100 µM | > 100 | > 100 | – | – | – | – | – | – | – | – | – | – | – | – |
| Cc1cc(C)c([O-])c(CN(C)CCN(C)Cc2cc(C)cc(C)c2[O-])c1.O=C([O-])c1cccc(C(=O)[O-])n1.[Ti+4] | – | 5.06 | > 100 | 8.47 | – | 5.47 µM | > 100 | – | 4.57 | > 100 | – | 2.03 | 3.2 | 2.92 | – | 2.08 | 3.18 | 2.29 | > 100 | – |
| COC(=O)c1s/c(=N\C(=S)N(C)C)n(-c2ccccc2)c1C(=O)OC | > 100 | > 100 | > 100 | > 100 | > 100 | > 100 µM | > 100 | – | – | – | – | – | – | – | – | – | – | – | – | – |
| CC(=O)[O-].CC(=O)[O-].[Pt+2].c1cscn1.c1cscn1 | > 100 | > 100 | > 100 | > 100 | > 100 | 42.2 µM | > 100 | – | 22.9 | > 100 | 48.3 | > 100 | > 100 | > 100 | > 100 | 20.8 | 45.1 | > 100 | > 100 | – |
| Nc1c(C(=O)c2ccc(Cl)cc2)sc(Nc2ccccc2)c1-c1nc2ccccc2s1 | > 100 | 18.5 | > 100 | 65.8 | – | > 74.1 µM | > 100 | > 100 | – | – | 2.63 | 1.64 | 1.42 | 3.71 | – | 3.13 | > 100 | 2.56 | 26.9 | 0.857 |
| O=C1OC(CC(=O)c2ccc(Cl)c(Cl)c2)C(Cl)=C1Cl (configuration not stated) | > 100 | > 100 | > 100 | > 100 | > 100 | 72.6 µM | > 100 | – | – | – | – | – | – | – | – | – | – | – | – | – |
| CC(C)(C#N)c1cc(Cn2cncn2)cc(C(C)(C)C#N)c1 | > 10000 | > 10000 | > 10000 | > 10000 | > 10000 | > 10000 µM | > 10000 | – | > 10000 | > 10000 | 2450 | > 10000 | 1760 | 921 | 3050 | 2630 | 933 | 289 | > 10000 | – |
| CCCCc1c2c(nc3c1CCC/C3=C\c1ccccc1)C(=O)CCC2 | 33.2 | 58.7 | 42.5 | 42 | 31.4 | 29.5 µM | 62 | 36.6 | – | – | – | – | – | – | – | – | – | – | – | – |
| CC(C)CS(=O)(=O)/C(=C(\c1ccc(Br)cc1)S(=O)(=O)CC(C)C)c1ccc(Br)cc1 | > 100 | > 100 | 40.9 | > 100 | > 100 | > 100 µM | > 100 | > 100 | – | – | – | – | – | – | – | – | – | – | – | – |
| O=[N+]([O-])c1cccc(C2N3CCCCC3[C@@H]3c4[nH]c5ccccc5c4CCN23)c1 (some centres not stated) | 29.7 | 25.3 | 39.2 | 30.2 | 19.8 | – | 45.5 | – | – | – | – | – | – | – | – | – | – | – | – | – |
| CC(=O)OCC1OC(N2C(=O)C(=O)c3cc(C)ccc32)C(OC(C)=O)C(OC(C)=O)C1OC(C)=O (configuration not stated) | > 100 | > 100 | > 100 | > 100 | > 100 | > 100 µM | > 100 | 41.4 | – | – | – | – | – | – | – | – | – | – | – | – |
| COc1ccc(N2C(=O)CC(Cl)C2=O)cc1 (configuration not stated) | 32.5 | 48.5 | > 100 | > 100 | 31.7 | 36.5 µM | > 100 | – | – | > 100 | – | – | – | – | – | – | – | – | > 100 | – |
| Cc1cc(Cl)ccc1NC(=O)CCCC(=O)C1CCCC1=O (configuration not stated) | > 100 | > 100 | > 100 | – | > 100 | > 100 µM | > 100 | – | – | – | – | – | – | – | – | – | – | – | – | – |
| Cc1[nH]c2ccccc2c1C1Cc2ccccc2N1C(=O)/C=C\C(=O)O (configuration not stated) | 75.2 | > 100 | > 100 | > 100 | > 100 | 77.4 µM | > 100 | 85.7 | – | – | – | – | – | – | – | – | – | – | – | – |
| COc1cc2c(cc1OCCCOc1cc3c(cc1OC)C(=O)N1C[C@H](F)C[C@H]1C=N3)N=C[C@@H]1C[C@@H](F)CN1C2=O | – | 17.8 | 5.88 | 19.3 | 41.9 | 4.59 µM | 28.5 | 6.38 | 3.44 | 14.7 | – | 5.83 | 1.89 | 6.2 | 17.3 | 1.88 | 13.6 | – | – | 1.54 |
